Calls of active or inactive are those of the source. No cut-off for these calls is given here.
How the values were obtained:
[1] = molecular target: Acetylcholinesterase (Electrophorus electricus) (UniProt O42275); assay: Inhibition of electric eel AChE at 3.0 uM using acetylthiocholine iodide as substrate measured from 0.5 to 1.5 mins by spectrophotometry-based Ellman's method relative to control
Cholinesterase [2] = molecular target: T1, Cholinesterase (Homo sapiens, UniProt P06276); assay: Inhibition of human serum BChE using butyrylthiocholine iodide as substrate preincubated for 20 mins followed by substrate addition measured for 3 mins by Ellman's method
T1 sequence (P06276 whole entry): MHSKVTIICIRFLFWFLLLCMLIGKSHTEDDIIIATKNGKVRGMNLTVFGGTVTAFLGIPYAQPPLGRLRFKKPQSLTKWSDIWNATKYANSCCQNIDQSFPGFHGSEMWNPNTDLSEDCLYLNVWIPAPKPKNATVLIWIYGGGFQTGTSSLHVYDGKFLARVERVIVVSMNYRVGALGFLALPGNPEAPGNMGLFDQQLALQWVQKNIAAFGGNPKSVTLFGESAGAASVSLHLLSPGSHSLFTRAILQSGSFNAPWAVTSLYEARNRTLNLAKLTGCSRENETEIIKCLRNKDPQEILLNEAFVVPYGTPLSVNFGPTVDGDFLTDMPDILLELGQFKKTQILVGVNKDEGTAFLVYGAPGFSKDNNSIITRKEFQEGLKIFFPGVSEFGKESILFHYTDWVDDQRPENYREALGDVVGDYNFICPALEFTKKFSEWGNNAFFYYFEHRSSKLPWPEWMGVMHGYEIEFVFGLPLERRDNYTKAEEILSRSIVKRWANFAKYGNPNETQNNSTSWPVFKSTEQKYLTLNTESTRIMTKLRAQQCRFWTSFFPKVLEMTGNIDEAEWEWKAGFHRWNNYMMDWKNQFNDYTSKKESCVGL

Acetylcholinesterase [3] = molecular target: T2, Acetylcholinesterase (Homo sapiens, UniProt P22303); assay: Inhibition of human serum AChE at 25 uM using acetylthiocholine iodide as substrate preincubated for 20 mins followed by substrate addition measured for 3 mins by Ellman's method
T2 sequence (P22303 whole entry): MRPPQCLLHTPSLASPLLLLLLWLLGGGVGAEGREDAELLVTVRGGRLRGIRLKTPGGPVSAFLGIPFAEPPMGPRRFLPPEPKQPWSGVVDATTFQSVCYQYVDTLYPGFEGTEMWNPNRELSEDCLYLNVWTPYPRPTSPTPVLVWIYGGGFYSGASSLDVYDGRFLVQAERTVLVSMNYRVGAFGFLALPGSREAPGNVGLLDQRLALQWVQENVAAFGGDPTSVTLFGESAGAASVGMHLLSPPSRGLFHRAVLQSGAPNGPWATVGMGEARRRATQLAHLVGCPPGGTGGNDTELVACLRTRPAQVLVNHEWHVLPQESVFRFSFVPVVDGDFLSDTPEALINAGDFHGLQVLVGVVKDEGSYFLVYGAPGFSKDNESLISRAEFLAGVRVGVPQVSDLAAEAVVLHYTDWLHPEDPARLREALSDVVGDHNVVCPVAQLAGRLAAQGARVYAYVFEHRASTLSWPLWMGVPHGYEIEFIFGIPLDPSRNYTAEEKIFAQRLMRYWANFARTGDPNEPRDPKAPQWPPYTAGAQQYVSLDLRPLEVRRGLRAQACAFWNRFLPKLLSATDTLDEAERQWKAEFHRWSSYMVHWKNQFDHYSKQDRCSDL

[4] = molecular target: Acetylcholinesterase (Electrophorus electricus) (UniProt O42275); assay: Inhibition of electric eel AChE at 0.3 uM using acetylthiocholine iodide as substrate measured from 0.5 to 1.5 mins by spectrophotometry-based Ellman's method relative to control
[5] = molecular target: Acetylcholinesterase (Electrophorus electricus) (UniProt O42275); assay: Time-dependent inhibition of electric eel AChE at 300 nM using acetylthiocholine iodide as substrate
[6] = molecular target: Cholinesterase (Equus caballus) (UniProt P81908); assay: Inhibition of equine BChE at 3.0 uM using butyrylthiocholine iodide as substrate measured from 0.5 to 1.5 mins by spectrophotometry based Ellman's method relative to control
Cholinesterase (Equus caballus), sequence (P81908 whole entry): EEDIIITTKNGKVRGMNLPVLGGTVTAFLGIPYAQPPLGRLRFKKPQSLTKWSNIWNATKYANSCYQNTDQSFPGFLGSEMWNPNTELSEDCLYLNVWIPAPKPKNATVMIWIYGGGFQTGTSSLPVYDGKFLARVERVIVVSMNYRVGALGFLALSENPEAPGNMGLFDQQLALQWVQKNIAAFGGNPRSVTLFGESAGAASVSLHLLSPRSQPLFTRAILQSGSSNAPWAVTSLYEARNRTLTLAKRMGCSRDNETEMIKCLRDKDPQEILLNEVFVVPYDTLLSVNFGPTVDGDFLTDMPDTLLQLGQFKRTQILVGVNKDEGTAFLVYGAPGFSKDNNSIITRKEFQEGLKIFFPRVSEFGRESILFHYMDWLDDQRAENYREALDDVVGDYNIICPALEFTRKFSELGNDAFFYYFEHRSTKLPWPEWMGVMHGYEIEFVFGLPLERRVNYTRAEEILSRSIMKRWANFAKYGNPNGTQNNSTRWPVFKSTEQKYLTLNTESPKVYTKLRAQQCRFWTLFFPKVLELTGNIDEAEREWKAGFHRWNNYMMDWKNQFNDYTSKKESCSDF

[7] = molecular target: Acetylcholinesterase (Electrophorus electricus) (UniProt O42275); assay: Inhibition of electric eel AChE at 0.03 uM using acetylthiocholine iodide as substrate measured from 0.5 to 1.5 mins by spectrophotometry-based Ellman's method relative to control
[8] = molecular target: Cholinesterase (Equus caballus) (UniProt P81908); assay: Inhibition of equine BChE at 0.3 uM using butyrylthiocholine iodide as substrate measured from 0.5 to 1.5 mins by spectrophotometry based Ellman's method relative to control
Acetylcholinesterase [9] = molecular target: T2, Acetylcholinesterase; assay: Inhibition of human serum AChE using acetylthiocholine iodide as substrate preincubated for 20 mins followed by substrate addition measured for 3 mins by Ellman's method
Acetylcholinesterase [10] = molecular target: Acetylcholinesterase (Electrophorus electricus, UniProt O42275); assay: Mixed inhibition of electric eel AChE using acetylthiocholine iodide as substrate measured from 0.5 to 1.5 mins by Dixon plot analysis
Acetylcholinesterase (Electrophorus electricus, UniProt O42275), sequence (O42275 whole entry): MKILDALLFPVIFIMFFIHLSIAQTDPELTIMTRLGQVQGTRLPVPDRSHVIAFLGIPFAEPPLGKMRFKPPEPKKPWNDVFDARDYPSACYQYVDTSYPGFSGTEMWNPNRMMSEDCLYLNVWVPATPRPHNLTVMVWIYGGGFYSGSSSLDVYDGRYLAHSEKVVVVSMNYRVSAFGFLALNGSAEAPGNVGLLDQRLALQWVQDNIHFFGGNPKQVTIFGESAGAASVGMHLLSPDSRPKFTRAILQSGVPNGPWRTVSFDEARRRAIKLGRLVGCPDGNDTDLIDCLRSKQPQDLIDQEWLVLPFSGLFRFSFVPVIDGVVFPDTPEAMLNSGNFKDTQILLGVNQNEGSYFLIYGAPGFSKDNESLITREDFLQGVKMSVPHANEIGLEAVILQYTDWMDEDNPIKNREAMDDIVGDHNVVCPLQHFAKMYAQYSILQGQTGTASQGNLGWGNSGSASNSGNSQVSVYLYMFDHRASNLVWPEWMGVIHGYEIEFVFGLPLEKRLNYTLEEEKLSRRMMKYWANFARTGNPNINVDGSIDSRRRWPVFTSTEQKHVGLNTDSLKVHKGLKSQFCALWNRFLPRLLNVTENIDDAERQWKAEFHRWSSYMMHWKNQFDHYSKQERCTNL

HeLa [11] = assay: Cytotoxicity against human HeLa cells after 24 hrs by MTT assay; format: cell-based
HeLa [12] = assay: Cytotoxicity against human HeLa cells assessed as effect on cell viability up to 10 uM after 24 hrs by MTT assay; format: cell-based
[13] = Cytotoxicity against human T67 cells after 24 hrs by MTT assay; format: cell-based; conditions: T67, 24 h
[14] = Cytotoxicity against human T67 cells assessed as effect on cell viability up to 10 uM after 24 hrs by MTT assay; format: cell-based
[15] = molecular target: Cholinesterase (Equus caballus) (UniProt P81908); assay: Inhibition of equine BChE at 30 uM using butyrylthiocholine iodide as substrate measured from 0.5 to 1.5 mins by spectrophotometry based Ellman's method relative to control
HeLa [16] = assay: Cytotoxicity against human HeLa cells assessed as cell mortality at 10 uM after 24 hrs by MTT assay; format: cell-based
[17] = Cytotoxicity against human T67 cells assessed as cell mortality at 10 uM after 24 hrs by MTT assay; format: cell-based
Cholinesterase [18] = molecular target: T1, Cholinesterase; assay: Inhibition of human serum BChE at 25 uM using butyrylthiocholine iodide as substrate preincubated for 20 mins followed by substrate addition measured for 3 mins by Ellman's method

Acetylcholinesterase (Electrophorus electricus), sequence (O42275 24-633 limits assumed): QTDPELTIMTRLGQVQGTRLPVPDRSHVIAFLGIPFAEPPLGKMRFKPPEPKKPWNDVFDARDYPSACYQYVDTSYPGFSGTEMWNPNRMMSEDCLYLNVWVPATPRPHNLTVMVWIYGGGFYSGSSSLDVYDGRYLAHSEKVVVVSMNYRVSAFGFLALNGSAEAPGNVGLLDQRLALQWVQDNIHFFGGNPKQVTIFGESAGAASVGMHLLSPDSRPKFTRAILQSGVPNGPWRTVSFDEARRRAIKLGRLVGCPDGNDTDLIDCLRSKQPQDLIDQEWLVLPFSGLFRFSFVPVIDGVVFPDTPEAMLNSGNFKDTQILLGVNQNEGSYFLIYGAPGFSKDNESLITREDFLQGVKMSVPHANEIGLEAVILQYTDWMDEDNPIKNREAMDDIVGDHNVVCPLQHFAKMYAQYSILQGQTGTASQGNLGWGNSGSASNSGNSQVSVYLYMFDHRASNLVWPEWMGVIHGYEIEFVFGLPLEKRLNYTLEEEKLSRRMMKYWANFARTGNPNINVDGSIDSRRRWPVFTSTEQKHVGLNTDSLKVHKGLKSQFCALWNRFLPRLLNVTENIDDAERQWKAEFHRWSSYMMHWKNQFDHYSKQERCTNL

| Compound | inhibition [1] [%] | IC50 (Cholinesterase [2]) [µM] | inhibition (Acetylcholinesterase [3]) [%] | inhibition [4] | TDI [5] | inhibition [6] [%] | inhibition [7] [%] | inhibition [8] [%] | IC50 (Acetylcholinesterase [9]) [µM] | Ki (Acetylcholinesterase [10]) [µM] | IC50 (HeLa [11]) [µM] | Activity (HeLa [12]) | IC50 [13] [µM] | Activity [14] | inhibition [15] [%] | Activity (HeLa [16]) [%] | Activity [17] [%] | inhibition (Cholinesterase [18]) [%] |
| --- | --- | --- | --- | --- | --- | --- | --- | --- | --- | --- | --- | --- | --- | --- | --- | --- | --- | --- |
| O=C(Nc1cc(Cl)nc(Cl)c1)OCCCCCNCc1ccc(Oc2ccccc2)cc1 | 24 | 8.41 | < 20 | < 5% | inactive | 60 | – | – | – | – | – | – | – | – | – | – | – | – |
| COc1ccccc1CNCCCCCCNC(=O)c1cc(Cl)nc(Cl)c1 | 90 | 45.5 | – | 49% | – | 54 | 14 | 6 | 8.3 | 0.355 | – | – | – | – | – | – | – | – |
| O=C(NCCCCCCNCc1ccccc1)c1cc(Cl)nc(Cl)c1 | 95 | 25.8 | – | 71% | – | 73 | 18 | 17 | 3.17 | 0.0528 | – | – | – | – | – | – | – | – |
| O=C(Nc1cc(Cl)nc(Cl)c1)OCCCCCNCc1ccccc1 | 99 | 4.59 | – | 91% | inactive | – | 65 | 17 | 0.153 | 0.0386 | 20.8 | Non-Toxic | 24.1 | Non-Toxic | 95 | – | – | – |
| O=C(Nc1cc(Cl)nc(Cl)c1)OCCCCCNCc1c[nH]c2ccccc12 | 97 | 0.828 | – | 76% | inactive | 57 | 24 | 8 | 0.648 | 0.157 | 6.7 | – | 5.8 | – | – | 50 | 50 | – |
| O=C(Nc1cc(Cl)nc(Cl)c1)OCCCCCCNCc1ccccc1 | 91 | 4.01 | – | 72% | inactive | – | 33 | 12 | 0.759 | 0.259 | 12.5 | – | 13.2 | – | 89 | 25 | 25 | – |
| O=C(Nc1ccncc1Br)OCCCCCNCc1ccccc1 | 90 | 5.27 | – | 55% | inactive | 57 | 20 | < 5 | 4.04 | 0.404 | – | – | – | – | – | – | – | – |
| COc1ccccc1CNCCCCCOC(=O)Nc1cc(Cl)nc(Cl)c1 | 89 | 4.02 | – | 50% | inactive | 49 | 10 | < 5 | 6.16 | 0.288 | – | – | – | – | – | – | – | – |
| O=C(NCCCCCCNCc1ccc(Oc2ccccc2)cc1)c1cc(Cl)nc(Cl)c1 | 16 | – | < 20 | inactive | – | 18 | – | – | – | – | – | – | – | – | – | – | – | < 20 |
| O=C(NCCCCCCNCc1c[nH]c2ccccc12)c1cc(Cl)nc(Cl)c1 | 92 | 4.7 | – | 55% | – | 64 | 15 | 13 | 8.85 | 0.205 | – | – | – | – | – | – | – | – |
| O=C(NCCCCCCNCc1ccc2ccccc2c1)c1cc(Cl)nc(Cl)c1 | 15 | 9.96 | – | inactive | – | 46 | – | – | 99.7 | – | – | – | – | – | – | – | – | – |
